The source of these data is patent US8828908B2, “Herbicidally active bicyclic 1,3-dione compounds” (Syngenta Limited, priority 2007, dated 2014).

One may read the pest or weed control as the degree to which the test organism was suppressed or injured, in per cent.

Common to all, as to assay type: in vivo
For test [1], the system named is Alopecurus myosuroides (ALOMY). The experiment in a line: Example A pre-emergence herbicidal glasshouse test. The following applies: 312 h, Rate 250 g/ha, evaluated after 13 days, 100=total damage to plant, 0=no damage to plant. The method, then: (§1) Seeds of a variety of test species were sown in standard soil in pots. After cultivation for one day (pre-emergence) or after 8 days cultivation (post-emergence) under controlled conditions in a glasshouse (at 24/16° C., day/night; 14 hours light; 65% humidity), the plants were sprayed with an aqueous spray solution derived from the formulation of the technical active ingredient in acetone/water (50:50) solution containing 0.5% Tween 20 (polyoxyethelyene sorbitan monolaurate, CAS RN 9005-64-5). The test plants were then grown in a glasshouse under controlled conditions in a glasshouse (at 24/16° C., day/night; 14 hours light; 65% humidity) and watered twice daily. After 13 days for pre and post-emergence, the test was evaluated (100=total damage to plant; 0=no damage to plant).
(§2) Alopecurus myosuroides (ALOMY), Avena fatua (AVEFA), Setaria faberi (SETFA), Echinochloa crus-galli (ECHCG), Solanum nigrum (SOLNI) and Amaranthus retroflexus (AMARE)

In test [2] the test system is Amaranthus retroflexus (AMARE). Nature of the test: Example A pre-emergence herbicidal glasshouse test. Conditions: 312 h, Rate 250 g/ha, evaluated after 13 days, 100=total damage to plant, 0=no damage to plant. The method, then: as §1, §2
Test [3] has as its system Avena fatua (AVEFA). The experiment in a line: Example A pre-emergence herbicidal glasshouse test. The following applies: 312 h, Rate 250 g/ha, evaluated after 13 days, 100=total damage to plant, 0=no damage to plant. The method, then:
as §1, §2

In test [4] the test system is Echinochloa crus-galli (ECHCG). The experiment in a line: Example A pre-emergence herbicidal glasshouse test. The following applies: 312 h, Rate 250 g/ha, evaluated after 13 days, 100=total damage to plant, 0=no damage to plant. The method, then: as §1, §2
Test [5] relates to Setaria faberi (SETFA). Nature of the test: Example A pre-emergence herbicidal glasshouse test. Conditions: 312 h, Rate 250 g/ha, evaluated after 13 days, 100=total damage to plant, 0=no damage to plant. As to the method: as §1, §2
Test [6] has as its system Alopecurus myosuroides (ALOMY). Nature of the test: Example A post-emergence herbicidal glasshouse test. Conditions: 312 h, evaluated after 13 days, 100=total damage to plant, 0=no damage. The method, then: as §1, §2
Test [7] deals with Amaranthus retroflexus (AMARE). Described as above. Conditions: 312 h, evaluated after 13 days, 100=total damage to plant, 0=no damage. As to the method: as §1, §2
The test system of test [8] is Avena fatua (AVEFA). Described as above. Conditions: 312 h, evaluated after 13 days, 100=total damage to plant, 0=no damage. As to the method: as §1, §2
Test [9] concerns Echinochloa crus-galli (ECHCG). Described as above. Conditions: 312 h, evaluated after 13 days, 100=total damage to plant, 0=no damage. The method, then: as §1, §2
In test [10] the test system is Setaria faberi (SETFA). The description is as above. The following applies: 312 h, evaluated after 13 days, 100=total damage to plant, 0=no damage. As to the method:
as §1, §2

On to `Cc1ccc(-c2ccc(F)c(F)c2)cc1C1=C(O)[C@H]2CC[C@H](C2)C1=O` (single isomer, unassigned) [Compound T9], for which the pest or weed control at 250 g/ha was determined as 0% in test [1]; 0% in [2]; 0% with Avena fatua (AVEFA) [3]; 0% in [4]; 50% in the test with Setaria faberi (SETFA) [5]; 10% in test [6]. In addition, the pest or weed control at 250 g/ha in [7] worked out at 0%; in the test with Avena fatua (AVEFA) [8], 40%; in [9], 70%; in the test with Setaria faberi (SETFA) [10] it was 80%.

For `Cc1ccc(-c2ccccc2C)cc1C1=C(O)[C@H]2CC[C@H](C2)C1=O` (single isomer, unassigned) [Compound T18], the pest or weed control at 250 g/ha (in test [1]; in test [2]; in the test on Avena fatua (AVEFA) [3]; in [4]; in the test with Setaria faberi (SETFA) [5]; in [6]) was 0% each time. Also, the pest or weed control at 250 g/ha (in test [7]; in the test on Avena fatua (AVEFA) [8]; in test [9]; in the test on Setaria faberi (SETFA) [10]) was 0% each time.

`Cc1cccc(-c2ccc(C)c(C3=C(O)[C@H]4CC[C@H](C4)C3=O)c2)c1` (single isomer, unassigned) [Compound T19]: the pest or weed control at 250 g/ha (in test [1]; in test [2]; in the test on Avena fatua (AVEFA) [3]; in [4]; with Setaria faberi (SETFA) [5]; in test [6]) was 0% in each case. Further, the pest or weed control at 250 g/ha came out at 20% in test [7], 0% in the test with Avena fatua (AVEFA) [8], 40% in test [9] and 50% in the test on Setaria faberi (SETFA) [10].

As for `Cc1ccc(-c2ccc(C)c(C3=C(O)[C@H]4CC[C@H](C4)C3=O)c2)cc1` (single isomer, unassigned) [Compound T20], the pest or weed control at 250 g/ha in [1] was 10%; in test [2], 0%; in the test with Avena fatua (AVEFA) [3], 0%; in test [4], 40%; in the test with Setaria faberi (SETFA) [5] it was 0%; in [6], 20%. Moreover, the pest or weed control at 250 g/ha in test [7] is 0%; in the test with Avena fatua (AVEFA) [8] it was 0%; in test [9] it was 60%; in the test with Setaria faberi (SETFA) [10] it was 50%.

`Cc1ccc(-c2ccccc2C(F)(F)F)cc1C1=C(O)[C@H]2CC[C@H](C2)C1=O` (single isomer, unassigned) [Compound T21]: the pest or weed control at 250 g/ha (in test [1]; in test [2]; in the test with Avena fatua (AVEFA) [3]; in [4]; in the test on Setaria faberi (SETFA) [5]; in [6]) was 0% throughout. For the same compound, the pest or weed control at 250 g/ha in [7] came to 0%; in the test with Avena fatua (AVEFA) [8] it was 0%; in test [9] it was 0%; in the test on Setaria faberi (SETFA) [10] it was 20%.

With `Cc1ccc(-c2cccc(C(F)(F)F)c2)cc1C1=C(O)[C@H]2CC[C@H](C2)C1=O` (single isomer, unassigned) [Compound T22], the pest or weed control at 250 g/ha was 0% in test [1]; 0% in test [2]; 0% in the test on Avena fatua (AVEFA) [3]; 20% in [4]; 10% in the test on Setaria faberi (SETFA) [5]; 0% in [6]. Also, the pest or weed control at 250 g/ha in test [7] was found to be 0%; in the test on Avena fatua (AVEFA) [8] it was 0%; in test [9], 20%; in the test on Setaria faberi (SETFA) [10] it was 50%.

Consider `Cc1ccc(-c2ccc(C(F)(F)F)cc2)cc1C1=C(O)[C@H]2CC[C@H](C2)C1=O` (single isomer, unassigned) [Compound T23], for which the pest or weed control at 250 g/ha in [1] is 50%; in test [2], 0%; with Avena fatua (AVEFA) [3], 0%; in test [4], 90%; with Setaria faberi (SETFA) [5], 100%; in [6], 60%. The pest or weed control at 250 g/ha in [7] stood at 0%; in the test with Avena fatua (AVEFA) [8] it was 60%; in test [9] it was 90%; with Setaria faberi (SETFA) [10], 100%.

For `CCc1ccc(-c2cccc(Cl)c2)cc1C1=C(O)[C@H]2CC[C@H](C2)C1=O` (single isomer, unassigned) [Compound T38], the pest or weed control at 250 g/ha was determined as 0% in test [1]; 0% in test [2]; 0% with Avena fatua (AVEFA) [3]; 60% in [4]; 0% with Setaria faberi (SETFA) [5]; 20% in [6]. For the same compound, the pest or weed control at 250 g/ha in test [7] was 0%; in the test with Avena fatua (AVEFA) [8], 0%; in test [9], 70%; with Setaria faberi (SETFA) [10], 40%.

For `CCc1ccc(-c2cc(Cl)ccc2OC)cc1C1=C(O)[C@H]2CC[C@H](C2)C1=O` (single isomer, unassigned) [Compound T40], the pest or weed control at 250 g/ha (in test [1]; in test [2]; in the test on Avena fatua (AVEFA) [3]; in test [4]; in the test with Setaria faberi (SETFA) [5]; in test [6]) was 0% throughout. Besides, the pest or weed control at 250 g/ha (in [7]; in the test with Avena fatua (AVEFA) [8]; in test [9]; in the test with Setaria faberi (SETFA) [10]) was 0% throughout.

For `Cc1ccc(-c2ccc(Cl)cc2C(F)(F)F)cc1C1=C(O)[C@H]2CC[C@H](C2)C1=O` (single isomer, unassigned) [Compound T42], the pest or weed control at 250 g/ha (in test [1]; in test [2]; in the test on Avena fatua (AVEFA) [3]; in test [4]; in the test with Setaria faberi (SETFA) [5]; in test [6]) was 0% in each case. Moreover, the pest or weed control at 250 g/ha (in [7]; in the test with Avena fatua (AVEFA) [8]; in test [9]; in the test with Setaria faberi (SETFA) [10]) was 0% in each case.

`CCc1ccc(-c2ccc(Cl)cc2C(F)(F)F)cc1C1=C(O)[C@H]2CC[C@H](C2)C1=O` (single isomer, unassigned) [Compound T45]: the pest or weed control at 250 g/ha was 0% in test [1]; 0% in [2]; 0% with Avena fatua (AVEFA) [3]; 0% in [4]; 0% with Setaria faberi (SETFA) [5]; 30% in test [6]. The pest or weed control at 250 g/ha in test [7] was found to be 0%; in the test with Avena fatua (AVEFA) [8] it was 0%; in test [9] it was 60%; with Setaria faberi (SETFA) [10], 70%.

On to `Cc1ccc(-c2cccc(Cl)c2F)cc1C1=C(O)[C@H]2CC[C@H](C2)C1=O` (single isomer, unassigned) [Compound T46], for which the pest or weed control at 250 g/ha (in test [1]; in [2]; in the test with Avena fatua (AVEFA) [3]; in test [4]; with Setaria faberi (SETFA) [5]; in [6]) was 0% each time. Further, the pest or weed control at 250 g/ha (in test [7]; in the test on Avena fatua (AVEFA) [8]; in test [9]; in the test with Setaria faberi (SETFA) [10]) was 0% in each case.

For the compound `Cc1ccc(-c2cc(F)cc(Cl)c2)cc1C1=C(O)[C@H]2CC[C@H](C2)C1=O` (single isomer, unassigned) [Compound T47], the pest or weed control at 250 g/ha (in test [1]; in test [2]; in the test on Avena fatua (AVEFA) [3]; in test [4]; in the test with Setaria faberi (SETFA) [5]; in [6]) was 0% each time. Moreover, the pest or weed control at 250 g/ha in test [7] is 0%; with Avena fatua (AVEFA) [8], 0%; in test [9] it was 30%; with Setaria faberi (SETFA) [10], 0%.
